Data: US20240246905A1 (University of Leicester, priority 2021, published 2024)
Converted amounts (≈) assume the structure as drawn.

How the values were obtained:
[1] = test system: various Staphylococcus aureus strains; test: Disc diffusion, Staphylococcus aureus strain study; format: cell-based; conditions: Staphylococcus aureus, 500 μg/mL
From the text: At this point in the study it was decided to perform a disc diffusion assay study on 50 S. aureus strains. […] Moreover, by employing a range of mutant strains of S. aureus with specific gene-deletions, it was believed that if particular strains were resistant to the lead compounds, it could provide insights on the likely protein target of the lead antibiotics. However, all six of the compounds utilized in this study were able to inhibit growth of all 50 strains of S. aureus assayed at the chosen concentration of 500 μg/mL concentration (Table 5).
E. coli DH5α, P. aeruginosa PA01 and the 53 S. aureus strains were recovered from frozen (−80° C.) glycerol (15% v/v) stocks on Lysogeny agar (LA)—Gram negative and trypticase soy agar (TSA)—plates at 37° C. for 24 hours. Single colonies were placed in either 3 mL Lysogeny broth (LB)—Gram negative or trypticase soy broth (TSB)—Gram positive and incubated at 37° C., 250 rpm for 18 hours.
The antibiotic activity was determined using a Kirby-Bauer method according to Clinical Standard Laboratory Institute (CSLI) Guidelines (2017). Briefly, 180 μL of a 1 in 200 dilution (in LB or TSB) of overnight cultures of selected Gram negative and Gram positive bacteria were applied to an agar plate containing the solid growth medium, Mueller-Hinton agar (MHA). Sterile discs, inoculated with 50 μL of antibiotic, were first added to the agar plate before the plates were incubated for 24 hours at 37° C. Following incubation, the zone of inhibition (if it existed) was recorded.

[2] = test system: Staphylococcus aureus 15981; test: Disc diffusion (Kirby-Bauer), zone of inhibition; format: cell-based; conditions: Staphylococcus aureus 15981; 500 μg/mL; '/' = no zone; read-out: Zone of inhibition
Method in brief: (§1)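 Zones of inhibition recorded after 24 h at 37 °C on Mueller-Hinton agar. Agar was inoculated with 1 in 200 diluted 18 h broth cultures, and discs carried 50 μL of antibiotic. Method follows CLSI 2017 disc diffusion.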

MSSA 476 [3] = test: MIC, broth micro-dilution; format: cell-based, Staphylococcus aureus; conditions: Staphylococcus aureus, MSSA, read-out: MIC
Method in brief: (§2)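 S. aureus cultures grown 18 h in TSB were used to inoculate twofold antibiotic series in TSB at 5×10^5 CFU/mL, per CLSI guidelines. Growth curves read by optical density at 12-min intervals for 18 h at 37 °C were fitted sigmoidally to calculate MIC.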

MRSA 252 [4] = test: MIC, broth micro-dilution; format: cell-based, Staphylococcus aureus; conditions: Staphylococcus aureus, read-out: MIC
Method in brief: as §2

red blood cells = test: Hemolysis assay (CO-ADD); format: cell-based; conditions: 32 μg/mL highest concentration tested
From the text: A problem often encountered by emerging drugs is hemolysis, also known as drug-induced immune hemolytic anemia.

MSSA 476 [5] = test: Disc diffusion (Kirby-Bauer), zone of inhibition; format: cell-based, Staphylococcus aureus; conditions: Staphylococcus aureus, 500 μg/mL, '/' = no zone, read-out: Zone of inhibition
Method in brief: as §1

MRSA 252 [6] = test: Disc diffusion (Kirby-Bauer), zone of inhibition; format: cell-based, Staphylococcus aureus; conditions: Staphylococcus aureus, 500 μg/mL, '/' = no zone, read-out: Zone of inhibition
Method in brief: as §1

HEK293 cells = test: Cytotoxicity assay, resazurin (CO-ADD)
Experimental: The cytotoxicity studies were performed by CO-ADD (The Community for Open Antimicrobial Drug Discovery), funded by the Wellcome trust (UK) and the University of Queensland, Australia.^(28) In this study, the compounds were screened against a human embryonic kidney cell line, HEK293, at a set concentration of 32 μg/mL.
DMEM supplemented with 10% FBS was used as growth media and the cells were incubated together with the compounds for 20 hours at 37° C. in 5% CO2.
Cytotoxicity (or cell viability) was measured by fluorescence, excitation: 560/10 nm, emission: 590/10 nm (F560/590), after addition of 5 μL of 25 μg/mL Resazurin (2.3 μg/mL final concentration) and after incubation for further 3 h at 37° C. in 5% CO2. The fluorescence intensity was measured using a Tecan M1000 Pro monochromator plate reader, using automatic gain calculation CC50 (concentration at 50% cytotoxicity) were calculated by curve fitting the inhibition values vs. log(concentration) using sigmoidal dose-response function, with variable fitting values for bottom, top and slope. The curve fitting was implemented using Pipeline Pilot's dose-response component.

[C-]#[N+]/C=C/c1ccc(O)cc1/C=C/c1ccccc1 [Compound 36, 4-((E Z)-2-Isocyanovinyl)-3-((E)-styryl)phenol]
zone of inhibition at 500 µg/mL ([1]; strain ASARM 61): 29 mm
zone of inhibition at 500 µg/mL ([1]; strain ASARM 70): 28 mm
zone of inhibition at 500 µg/mL ([1]; strain ASARM 71): 26 mm
zone of inhibition at 500 µg/mL ([1]; strain ASARM 72): 26 mm
zone of inhibition at 500 µg/mL ([1]; strain ASARM 73): 29 mm
zone of inhibition at 500 µg/mL ([1]; strain ASARM 75): 32 mm
zone of inhibition at 500 µg/mL ([1]; strain ASARM 76): 34 mm
zone of inhibition at 500 µg/mL ([1]; strain ASARM 77): 34 mm
zone of inhibition at 500 µg/mL ([1]; strain ASARM 79): 29 mm
zone of inhibition at 500 µg/mL ([1]; strain ASARM 80): 30 mm
zone of inhibition at 500 µg/mL ([1]; strain EOE 3): 30 mm
zone of inhibition at 500 µg/mL ([1]; strain EOE 23): 32 mm
zone of inhibition at 500 µg/mL ([1]; strain EOE 30): 34 mm
zone of inhibition at 500 µg/mL ([1]; strain EOE 35): 32 mm
zone of inhibition at 500 µg/mL ([1]; strain EOE 41): 28 mm
zone of inhibition at 500 µg/mL ([1]; strain EOE 42): 26 mm
zone of inhibition at 500 µg/mL ([1]; strain EOE 45): 28 mm
zone of inhibition at 500 µg/mL ([1]; strain EOE 52): 28 mm
zone of inhibition at 500 µg/mL ([1]; strain EOE 54): 29 mm
zone of inhibition at 500 µg/mL ([1]; strain EOE 57): 28 mm
zone of inhibition at 500 µg/mL ([1]; strain S139_7_7): 24 mm
zone of inhibition at 500 µg/mL ([1]; strain S197_1_1): 29 mm
zone of inhibition at 500 µg/mL ([1]; strain S197_1_8): 28 mm
zone of inhibition at 500 µg/mL ([1]; strain S197_1_9): 28 mm
zone of inhibition at 500 µg/mL ([1]; strain S197_1_10): 28 mm
zone of inhibition at 500 µg/mL ([1]; strain S295_1_1): 30 mm
zone of inhibition at 500 µg/mL ([1]; strain S295_1_2): 30 mm
zone of inhibition at 500 µg/mL ([1]; strain S295_1_3): 32 mm
zone of inhibition at 500 µg/mL ([1]; strain S364_5_11): 30 mm
zone of inhibition at 500 µg/mL ([1]; strain S364_5_12): 28 mm
zone of inhibition at 500 µg/mL ([1]; strain Sa_TPS 3026): 29 mm
zone of inhibition at 500 µg/mL ([1]; strain Sa_TPS 3072): 28 mm
zone of inhibition at 500 µg/mL ([1]; strain Sa_TPS 3092): 29 mm
zone of inhibition at 500 µg/mL ([1]; strain Sa_TPS 3097): 34 mm
zone of inhibition at 500 µg/mL ([1]; strain Sa_TPS 3103): 32 mm
zone of inhibition at 500 µg/mL ([1]; strain Sa_TPS 3104): 32 mm
zone of inhibition at 500 µg/mL ([1]; strain Sa_TPS 3106): 28 mm
zone of inhibition at 500 µg/mL ([1]; strain Sa_TPS 3118): 28 mm
zone of inhibition at 500 µg/mL ([1]; strain Sa_TPS 3133): 28 mm
zone of inhibition at 500 µg/mL ([1]; strain Sa_TPS 3134): 26 mm
zone of inhibition at 500 µg/mL ([1]; strain USFL 008): 26 mm
zone of inhibition at 500 µg/mL ([1]; strain USFL 009): 28 mm
zone of inhibition at 500 µg/mL ([1]; strain USFL 012): 28 mm
zone of inhibition at 500 µg/mL ([1]; strain USFL 016): 32 mm
zone of inhibition at 500 µg/mL ([1]; strain USFL 018): 30 mm
zone of inhibition at 500 µg/mL ([1]; strain USFL 020): 30 mm
zone of inhibition at 500 µg/mL ([1]; strain USFL 021): 29 mm
zone of inhibition at 500 µg/mL ([1]; strain USFL 028): 28 mm
zone of inhibition at 500 µg/mL ([1]; strain USFL 035): 28 mm
zone of inhibition at 500 µg/mL ([1]; strain USFL 054): 28 mm
zone of inhibition at 500 µg/mL ([1]; strain not given): 22 mm
zone of inhibition at 500 µg/mL [2]: 30 mm
MIC (MSSA 476 [3]): 12 µg/mL (≈ 48.5 µM)
MIC (MRSA 252 [4]): 15 µg/mL (≈ 60.7 µM)
Hemolytic activity (HC10) (red blood cells): >32 µg/mL
zone of inhibition at 500 µg/mL (MSSA 476 [5]): 30 mm
zone of inhibition at 500 µg/mL (MRSA 252 [6]): 28 mm
Concentration toxic to HEK 293 cells (HEK293 cells; HEK 293): >32000 ng/mL
toxicity towards the HEK293 cell line (in words) (HEK293 cells; set concentration of 32 μg/mL): no toxicity
